The results in this text go back to patent US20230292758A1, “COMPOSITIONS AND METHODS FOR CONTROLLLING FUNGAL DISEASES IN PLANTS” (priority 2020, published 2023).

Data set [1] in a line: Relative lipopeptide levels in supernatants by LC-MS. The class given is physicochemical. The settings on record: Example 4. As for the experimental part:
Bacillus subtilis QST713 WB and Bacillus subtilis QST713 BC were prepared as described in the previous examples. […] Combinations of Bacillus subtilis QST713 BC with 3% (w/w) ANS or 5% (w/w) ANS were also prepared. […] To determine relative amounts of lipopeptides in the combinations samples were centrifuged to obtain the supernatant layer relatively free of spores. It was then filtered and separated on an analytical HPLC column and detected with a mass spectrometer (i.e., via LC-MS).
Peaks containing lipopeptides were identified by analysis of mass to charge (m/z) ratios. For example, “Iturin_1043_B” corresponds with an iturin peak in which the predominant m/z ratio detected by the mass spectrometer was 1043 corresponding with the molecular formula of C48H74N12O14. Relative quantification was performed by comparing the peak areas in the samples to those in an extract of a Bacillus subtilis QST713 WB used across different experiments as a reference standard.
For purposes of comparison, an aliquot of the Bacillus subtilis QST713 WB that was present in the ANS combinations was also analyzed for relative lipopeptides levels. The Bacillus subtilis QST713 WB (the “Extracted” sample in FIG. 2) and a supernatant of the Bacillus subtilis QST713 WB removed after centrifugation (the “Supernatant” sample in FIG. 2) were analyzed via LC-MS. […]

For data set [2], the system named is Botrytis cinerea. Kind of data set: Botrytis cinerea disease control assay on treated plants inoculated with spore suspension. The data set is classed as in vivo. To be noted: Example 1; bell pepper plants. As for the experimental part: Subsequently, the plants were inoculated with a spore suspension of Botrytis cinerea. Several days later when disease was evident in the untreated control plants the plants were evaluated for percent disease control. The results shown in Table 1 are the average values of four independent measurements. A relatively high disease pressure affecting 100% of plants in the untreated control group was present. Percent disease control was scored with 0% indicating no difference in disease from the untreated control plants and 100% indicating no observable disease in the plants. […]
Bacillus subtilis QST713 WB and BC were prepared as described in the previous examples. […] Subsequently, the plants were inoculated with a spore suspension of Botrytis cinerea and scored for percent disease control when disease was evident in 100% of the untreated control plants. […]
Bacillus subtilis QST713 WB was prepared as described in the previous examples. […] Four replicate measurements of disease control were evaluated for each treatment, and the average values are presented in the plot shown in FIG. 4.
Each of the combinations was also evaluated for antifungal activity using the Botrytis cinerea assay described in the previous examples.

For “sodium diisopropyl naphthalene sulfonate [ANS]”, the “relative amounts of iturins in the supernatant” value in data set [1] (3% ANS in WB compared with 3% Adjuvant 1) was “about two to three times greater”. For the same substance, in data set [1] (increase from 3% to 5% of ANS, WB and BC), the “lipopeptides in the supernatants, in words” value is on record as “corresponding increase of lipopeptides”. Besides, the “antifungal activity / disease control, in words” value in data set [2] is given as “no observable disease control”.
